Measurements as given in ChEMBL document CHEMBL3045028, “Synthesis, AntiBacteriol, and Antifungal Activities of Some New Benzimidazoles” (1992).
Active and inactive are the calls of the source. No cut-off for these calls is given here.

What was measured:
Type in all cases: functional
Alternaria alternata = assay: In vivo antifungal activity against Alternaria tenuis; set-up: concentration or dose not given beside the values
[1] = system: Xanthomonas euvesicatoria; assay: In vitro antibacterial activity against Xanthomonas euvesicatoria P-2092 assessed as inhibition at 0.1 %
[2] = system: Xanthomonas campestris pv. campestris; assay: In vitro antibacterial activity against Xanthomonas campestris pv. campestris KF2 assessed as inhibition at 0.1 %
Agrobacterium sp. = assay: In vitro antibacterial activity against Agrobacterium radiobacter pv. tumefaciens assessed as inhibition at 0.1 %
Pseudomonas viridiflava = assay: In vitro antibacterial activity against Pseudomonas viridiflava 8 assessed as inhibition at 0.1 %
Botrytis cinerea = assay: In vitro antifungal activity against Botryotinia fuckeliana assessed as inhibition at 0.1 %
[3] = system: Xanthomonas phaseoli pv. phaseoli; assay: In vitro antibacterial activity against Xanthomonas campestris pv. phaseoli assessed as inhibition at 0.1 %
[4] = system: Pseudomonas savastanoi pv. glycinea; assay: In vitro antibacterial activity against Pseudomonas syringae pv. glycinea S1 assessed as inhibition at 0.1 %
[5] = system: Pseudomonas savastanoi pv. phaseolicola; assay: In vitro antibacterial activity against Pseudomonas syringae pv. phaseolicola E81 assessed as inhibition at 0.1 %
[6] = system: Agrobacterium tumefaciens; assay: In vivo antibacterial activity against Agrobacterium tumefaciens infected carrots assessed as effective at 0.01%

SMILES | Efficacy (Alternaria alternata) [%] | diameter of the inhibition zone (DIZ) [1] [cm] | diameter of the inhibition zone (DIZ) [2] [cm] | diameter of the inhibition zone (DIZ) (Agrobacterium sp.) [cm] | inhibition (Pseudomonas viridiflava) | diameter of the inhibition zone (DIZ) (Botrytis cinerea) [cm] | inhibition [3] | diameter of the inhibition zone (DIZ) [4] [cm] | inhibition [1] | diameter of the inhibition zone (DIZ) [5] [cm] | diameter of the inhibition zone (DIZ) (Pseudomonas viridiflava) [cm] | inhibition (Botrytis cinerea) | diameter of the inhibition zone (DIZ) [3] [cm] | inhibition [5] | Efficacy [6] [%] | inhibition [2]
COc1cccc(Cn2c(N)nc3ccccc32)c1 | 100 | 3 | 3 | 3 |  |  |  |  |  |  |  |  |  |  |  | 
Cc1cc2ncn(Cc3ccccc3Cl)c2cc1C | 50 |  | 1 |  | inactive | 1 | inactive | 1 | inactive | 1 |  |  |  |  |  | 
Nc1nc2ccccc2n1Cc1cccc(Cl)c1 | 50 | 3 | 3 |  |  |  |  | 2 |  |  | 3 | inactive | 3 | inactive |  | 
Cc1cccc(Cn2c(N)nc3ccccc32)c1 | 100 | 3 | 3 | 2 |  |  |  |  |  |  |  |  |  |  |  | 
COc1cccc(Cn2c(N)nc3cc(C)c(C)cc32)c1 | 100 |  |  |  |  |  |  |  |  |  |  |  |  |  |  | 
Cc1cc2ncn(Cc3cccc(F)c3)c2cc1C | 50 | 3 | 3 | 3 |  |  |  |  |  |  |  |  |  |  | 70 | 
O=[N+]([O-])c1ccc(/C=N/c2nc3ccccc3n2Cc2ccccc2Cl)o1 |  |  |  |  | inactive | 1 | inactive | 3 | inactive | 1 |  |  |  |  | 70 | inactive
Cc1cc2nc(/N=C/c3ccc([N+](=O)[O-])o3)n(Cc3ccc(Cl)cc3)c2cc1C |  | 1 | 1 |  |  | 3 |  | 2 |  | 2 | 1 |  | 3 |  | 70 | 
CCCCn1c(N)nc2cc(C)c(C)cc21 | 100 | 2 | 2 | 3 |  |  |  |  |  |  |  |  |  |  |  | 
CCCCn1c(N)nc2ccccc21 | 50 | 3 | 3 | 3 |  | 3 |  |  |  |  |  |  |  |  | 30 | 
